Measurements: patent US5728686A, “Alkylxanthine phosphonates and alkylxanthine phosphine oxides and their use as pharmaceuticals” (Hoechst Aktiengesellschaft, priority 1996, dated 1998)
In brackets after ≈: the same amount, converted by molar mass.

Assays:
soleus muscle = assay: rat muscle function test: muscle weight (atrophy of immobilized extremity); type: in vivo, male Wistar rats; details: oral, 1x per day for 3 weeks, as a rule 25 mg/kg, difference ≤25% classified as an effect
Procedure, shortened: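 Male Wistar rats (~300 g) had the right hind limb immobilized in a padded plastic cast for 3 weeks with daily oral dosing by stomach tube, as a rule 25 mg/kg in carboxymethylcellulose. Soleus weight of the immobilized limb was compared with the contralateral limb; a difference of ≤25% was classed as an effect.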

[1] = tested on: Endotoxin (LPS) from Salmonella abortus equi; assay: effect on endotoxin fatality (LPS-induced septic shock); type: in vivo, female NMRI mice; details: 25 mg/kg i.p. at the same time as LPS 60 mg/kg i.p.; 72 hours; vs placebo control
Protocol: 2. Test for effect on endotoxin fatality
Individual injections of lipopolysaccharide (LPS), from gram-negative bacteria, lead via a series of various symptoms to septic shock, which usually turns out to be fatal. Endotoxin (LPS) from Salmonella abortus equi in a dose of 60 mg/kg i.p. leads to shock and to death with at most 72 h p.a. (the dose of 60 mg/kg corresponds to approximately 1.20 mg of LPS/animal).
The experimental animals used are female NMRI mice from the Hoechst AG/Hattersheim animal breeding unit having a body weight of 22 to 24 g.
The test substances administered intraperitoneally (i.p.) in an administration volume of 10 ml/kg at the same time as the LPS. The number of surviving animals after 72 hours' LPS administration is indicated in comparison to a placebo control. The number of tested animals per group is 5; dose 25 mg/kg.

[2] = tested on: isolated guinea pig trachea, agonist calcium ionophore A23187; assay: antagonist of calcium ionophore A23187-induced contraction of isolated guinea pig trachea; type: cell-based; details: Cavia porcellus, 37° C., read-out: Anticontractile action (trachea), Ca ionophore: concentration range for dilatation corresponding to ED50 range
Excerpt: 3. Activity as antagonist of the contraction of isolated guinea pig trachea
The compounds of the formula I are used as antagonists of the contraction of isolated guinea pig trachea. The agonists employed were PGF2α (Upjohn, Germany), calcium ionophore A23187 (Calbiochem, Bad Soden, Germany), and substance P (American Peptide Comp., USA):
b) Calcium ionophore A23187 (Calbiochem, Bad Soden) acts by increased uptake of calcium ions, and an activation of all calcium-dependent signal cascades in the cell. Lipoxygenase inhibitors, in particular, and generally antiinflammatory substances show effects in this model.
(§1) Preparation of the organ sections and experimental procedure:
The guinea pig is sacrificed by means of terminal laughing gas anaesthesia. The trachea is exposed along its entire length and cut into 15 individual cartilage rings. 5 rings in each case are tied together to give a chain and fixed in the organ bath under a preload of 3 g. After an equilibration time of 45 minutes, a contraction is produced using the agonist. The antagonist (test preparation) is added cumulatively on the plateau of the maximum. Evaluation is carried out in % force change relative to the contraction maximum. The experimental procedure is carried out at 37° C.; the physiological nutrient solution used is a modified Krebs-Henseleit solution through which is bubbled 95% by volume of O2, 5% by volume of CO2.
Experimental animals: albino guinea pigs (Hattersheim Animal Breeding Institute, Kastengrund, Germany), weight: 200 to 300 g, sex male or female.
Vehicle: double-distilled water, ethanol or isopropanol; administration: into the organ bath number of administration: cumulative, in SP individual doses
All numerical values are indicated in the unit μg/ml and relate to the concentration range of the tested compound of the formula I according to the invention (see example numbers in Table 1) which is necessary in order to cause a dilatation which corresponds to the ED50 range.

[3] = tested on: isolated guinea pig lung strips, leukotriene D4 (LTD4); assay: antagonist of LTD4-induced contraction of isolated guinea pig lung strips; type: cell-based; details: Cavia porcellus, read-out: Anticontractile action (lung), LTD4: concentration range corresponding to the IC50 value
Excerpt: 4. Activity as an antagonist of the contraction of isolated guinea pig lung strips
The test carried out is based on the same principle as the test indicated in the pharmacological test 3; however, lung strips are used here.
as §1
The guinea pig is sacrificed under laughing gas anaesthesia. The entire pulmonary tract is exposed starting from the trachea. The lobes of the lung are cut in a circular fashion such that 3 mm wide strips are formed. The strips of the upper lobes are divided in order to obtain a total of six approximately equal size strips. The strips are suspended in the organ baths under a preload of 4 g. The nutrient solutions used are modified Krebs Henseleit solutions. When using "Platelet activating factor" (PAF) as an […], the composition of this solution corresponds to that for the agonist SP in "Test 3"; for the agonist LTD4 a Krebs Henseleit solution as in the case of the agonist KCl (Test 3) is used. 95% by volume O2, 5% by volume CO2 is used for bubbling through the bath; the bath temperature is 37° C. The experimental procedure is carried out in a therapeutically cumulative methodology, using the dosage graduations 1, 3, 6 and 10 μg/ml.
The experimental animals, organ bath, vehicles and manner of administration correspond to that stated in pharmacological test 3.
All numerical values are indicated in the unit μg/ml and relate to the concentration range of tested compound of the formula I (see example numbers in Table 1) which is necessary in order to cause a contraction which corresponds to the IC50 value.

phosphodiesterase III = assay: inhibition of phosphodiesterase III activity; type: biochemical; details: at 100 μM
Protocol: 5. Inhibition of phosphodiesterase III activity
The test is carried out using phosphodiesterase from Boehringer Mannheim (Mannheim, Germany), Order No. 108 243 according to the method of T. SAEKI, I. SAITO, Biochem. Pharm. 46, No. 5, […], pages 833-839.
All numerical values are indicated in % inhibition of the enzyme activity at 100 μM of the corresponding compound of the formula I.

CCOP(=O)(CCCn1cnc2c1c(=O)[nH]c(=O)n2C)OCC [Example 2, Diethyl [4-(3-methylxanthin-7-yl)propyl]phosphonate]
Muscle weight (right/left difference) (soleus muscle): -22 Δ %
Inhibition of mortality [1]: 100%
EC50 [2]: > 10 µg/mL
IC50 [3]: 3 to 6 µg/mL (≈ 8.71 to 17.4 µM)
PDE III Inhibition (phosphodiesterase III): 65%
